Key:
Homo sapiens = test: (§1) Pharmacokinetic parameters for Carvedilol following oral administration of Carvedilol tablets.; assay type: ADME, organism-based; details: in vivo, po, dosed compound id 39, dosed compound name CARVEDILOL, tissue Plasma
[1] = as §1; assay type: ADME, organism-based; details: human, in vivo, dosed compound id 39, dosed compound name CARVEDILOL, tissue Plasma

Molecule `COc1ccccc1OCCNCC(O)COc1cccc2[nH]c3ccccc3c12` (stereo not given) [CARVEDILOL] has a t1/2(app) (Homo sapiens; gender male and female) of 7 to 11 h, a Vss (Homo sapiens) of 115 L and a half-life ([1]; gender male and female, read-out: t1/2(app)) of 5 to 9 h. For the same molecule, the CL/F [1] was 500 to 700 mL/min and the bioavailability [1] was 25 to 35%.
